How the values were obtained:
[1] = system: early DAT subjects compared to controls; conditions: 1-3 min post-injection; no significant group difference at baseline; cited from earlier work
[2] = system: subjects with dementia of the Alzheimer's type (AD group) and healthy control group; test: Clinical trial: EEG recorded before and after intravenous scopolamine as probe compound, feature pair classification of AD group versus control group; assay type: in vivo, human; conditions: for number of feature pair classifiers scoring 80% or better: features 33-48 (ratios before/after administration), P3-P4 montage, leave one out
Source text: The effectiveness of the invention has been verified in a clinical trial. The participants in the trial were divided in two groups. One group consisted of 10 elderly subjects that have been diagnosed with, mild to moderate, dementia of the Alzheimer's type (AD group). A second age-matched group of 10 healthy individuals (i.e. non-AD individuals) was included as a control group.
The AD-group of participants consisted of patients in follow-up surveillance in the memory clinic at the Department of Geriatrics in Landspitali University Hospital, Reykjavik, Iceland. The group consisted of patients with Alzheimer's Disease (AD) (N=10) according to ICD-10. The other group consisted of normal Control participants (N=10), who were recruited from relatives of demented patients attending a day-care center.
To be eligible for participation in the study the subjects had to be in the range of 60-80 years of age, in good general health as determined by standard physical examination, with no acute changes on ECG. Exclusion criteria included smoking or any other use of tobacco (also excluding those that had stopped tobacco use about a week or less prior to the trial), treatment with neuroleptics and benzodiazepines, impaired liver- or kidney function, hypersensitivity to scopolamine, indication of drug, alcohol or medical abuse, glaucoma or possibility of raised intraocular pressure with administration of scopolamine. Prior to the screening visit the subjects were interviewed by phone. The AD subjects were selected from hospital records. All the AD patients in the follow-up program at the Memory Clinic were being treated with anti-dementia drugs. To minimize the variation between the subjects in the trial, the participants in the AD-group were selected from patients that were being treated with the same cholinesterase-inhibitor, Reminyl® (galantamine HBr).
Electroencephalographic neurophysiological signals were recorded from each of the subjects. The recording protocol was divided into two parts 105, 107 or sessions which were identical. In between the sessions the provided substance 101 substance scopolamine was administered intravenously, see FIG. 10. Within each section a two-minute period was recorded while the subject was instructed to be at rest with eyes closed. The data collected from these periods were used to estimate the individual features. The substance scopolamine was chosen based on its effects perturbing biophysical pathways that are known to deteriorate in subjects suffering from Alzheimer's disease. […]
The electroencephalographic signals were recorded using computerized measuring equipment, see FIG. 11. […]
These features were evaluated using a part of the first section where the subjects were at rest with eyes closed. […]

SMILES	beta power response in the frontal region, early DAT subjects compared to controls [1]	classification performance ([2]; 3-NN scheme, FIG. 15, response feature set versus pre-administration feature set)	number of feature pair classifiers scoring 80% or better ([2]; 3-NN scheme, 4 with pre-administration features 1-16)	number of feature pair classifiers scoring 80% or better ([2]; SVM classification scheme, 5 with pre-administration features 1-16)	separation between the AD and control groups for a feature pair ([2]; ratio of feature values pre- and post-administration (FIG. 14) versus features before administration (FIG. 13))
CCCC(C)C1(CC)C(=O)NC(=S)NC1=O (centres unmarked) [thiopental]	significantly smaller beta power response				
CN1[C@@H]2C[C@@H](OC(=O)[C@H](CO)c3ccccc3)C[C@H]1[C@@H]1O[C@@H]12 [scopolamine]		substantially enhanced classification performance	29	23	significantly better separation between the groups

— patent publication US20090220429A1, “METHOD AND A SYSTEM FOR ASSESSING NEUROLOGICAL CONDITIONS” (METIS CURA EHF, priority 2005, published 2009)
